Test results from US20240229101A1, “METHOD FOR DETECTING INTRACELLULAR ACTIVITY OF CYP ENZYMES” (NATIONAL INSTITUTE OF ADVANCED INDUSTRIAL SCIENCE AND …, priority 2021, published 2024).

Assays:
[1] = tested on: reduced heme b, mainly reduced cytochrome b5; assay: Raman observation of HepaRG hepatocytes, reduced heme b signal (675 cm^-1); type: cell-based, human; conditions: HepaRG induced with 4 μM Rifampicin, inhibitor 10 μM for 5 min (FIG. 24)
Excerpt: (§1) A Raman image of the cell group cultured using the above-mentioned method (1) or (2) was constructed by quantitatively measuring the Raman signal using Raman spectroscopy. Here, the “observation” in the present specification includes both detecting a Raman scattering signal of a cell group and acquiring and observing a Raman image of a cell group. […] Details are explained in each Example.
The culture medium of the cultured cell group was removed, and the cell group was washed twice with PBS. An observation solution (Live Cell Imaging Solution (A14291DJ, Thermo Fisher Scientific)) was added to the washed cell group. […]
(§2) The flow of detection of Raman scattered light of a cell group that was generated by excitation with excitation light is explained. […] The Raman scattering signal imaged on the slit is then separated by diffraction grating inside the spectroscope and detected by a cooling-type CCD image sensor (PIXIS 400B, Princeton Instruments) used as a photodetector. Raman scattering signals scattered from everywhere on the condensed line can be measured simultaneously and independently by different pixels on the CCD. […] Respective Raman signals were simultaneously detected in an about 133.3 μm region on the direction of the condensed line.

CYP enzyme group = assay: Raman observation of HepaRG hepatocytes, signal of oxidized CYP enzyme group (1370, 1636 cm^-1); type: cell-based, human
Excerpt: as §1
The culture medium of the cultured cell group was removed, and the cell group was washed twice with PBS. An observation solution (Live Cell Imaging Solution (A14291DJ, Thermo Fisher Scientific)) was added to the washed cell group. The thus-treated cell group was subjected to Raman observation using the Raman microscope (Non Patent Literature 3) described using FIG. 1 (FIG. 6, FIG. 9 to 11, FIG. 13 to FIG. 21, FIG. 23 to FIG. 26).
A 40× water immersion objective lens (CFI Apochromat Lambda S 40XC WI) equipped in a Raman microscope was used to excite the Raman scattered light of the cell group and to detect the Raman scattering signal. The excitation light of the Raman scattered light of the cell group was irradiated by condensing a laser beam with a wavelength of 532 nm into a straight line with a predetermined length (hereinafter referred to as a line) using the water immersion objective lens.
as §2

[2] = tested on: CYP3A4, CYP1A2, CYP2B6, and CYP2C9; assay: Induction of gene expression of CYP enzymes by inducing agents; type: cell-based, human; conditions: confirmed by the inventors
CYP3A4 = biological target: T1, CYP3A4 (Homo sapiens, UniProt P08684); assay: CYP3A4 activity in cell group by luminescence method (P450-Glo, Luciferin-IPA); type: cell-based; conditions: HepaRG pre-induced with 2% DMSO, 2 ng/ml, 48 hr, vs control (FIG. 18)
T1 construct: endogenous in cells; host or cells: HepaRG cells (human liver tumor-derived; BIOPREDIC International)
Procedure: In order to confirm the enzyme activity of CYP3A4, which is particularly expressed in liver cells among the CYP enzymes in the cell group subjected to Raman observation, a test using a luminescence method (hereinafter a luminescence test) was performed in parallel with the Raman observation. The cell is group used in the luminescence test was a cell group separated from the cultured cells used in the below-mentioned Raman observation in (5). That is, the cell group cultured under the same conditions and at the same time as the cultured cells used in Raman observation was used. CYP luminescence test was performed using a commercially available luminescence assay kit (P450-Glo-CYP3A4-Assay-and-Screening-System) according to the provided protocol.
When the Luciferin-IPA substrate is converted to luciferin by CYP3A4, it becomes a substrate for luciferase, producing luminescence proportional to the activity of CYP3A4. […] Luciferase (50 μl) was added dropwise to the dispensed substrate-containing medium, and luminescence was caused using the luciferin-luciferase reaction. Luminescence was detected using a micro-plate reader (Synergy HTX, BioTek). The CYP3A4 activity detected by the present luminescence method is shown in FIG. 7, FIG. 14, FIG. 16, FIG. 18, FIG. 20, and FIG. 22.

T1 sequence (P08684 whole entry): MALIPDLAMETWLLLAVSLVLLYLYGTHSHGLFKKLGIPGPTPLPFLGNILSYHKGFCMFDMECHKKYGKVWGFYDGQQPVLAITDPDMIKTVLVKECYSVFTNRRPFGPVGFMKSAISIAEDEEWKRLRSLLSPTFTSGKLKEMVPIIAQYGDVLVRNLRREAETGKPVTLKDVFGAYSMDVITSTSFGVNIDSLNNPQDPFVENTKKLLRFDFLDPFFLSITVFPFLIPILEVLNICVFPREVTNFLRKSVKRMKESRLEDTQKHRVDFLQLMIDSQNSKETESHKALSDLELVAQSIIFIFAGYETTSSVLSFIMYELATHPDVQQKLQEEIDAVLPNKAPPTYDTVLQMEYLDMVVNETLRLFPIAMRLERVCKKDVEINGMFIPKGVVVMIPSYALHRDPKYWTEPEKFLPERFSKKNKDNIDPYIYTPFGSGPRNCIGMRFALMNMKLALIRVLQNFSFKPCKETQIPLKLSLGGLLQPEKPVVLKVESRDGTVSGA

Molecule: CC[C@]1(C)C[C@@H](OC(=O)CSc2nnc(N)[nH]2)[C@]2(C)[C@H](C)CC[C@]3(CCC(=O)[C@H]32)[C@@H](C)[C@@H]1O [Azamulin]
- Raman signal with a wavenumber of 675 cm^-1 after inhibition [1]: did not increase
- Raman signal at a wavenumber of 1636 cm^-1 after inhibition (CYP enzyme group; HepaRG induced with 4 μM Rifampicin, inhibitor 10 μM for 5 min (FIG. 23)): reduces
- median value of per-cell Raman signal at 1636 cm^-1 after inhibition (CYP enzyme group; HepaRG induced with 4 μM Rifampicin, inhibitor 10 μM for 5 min, vs not administered, statistically significant (FIG. 23)): decreased

Molecule: NC(=O)N1c2ccccc2C=Cc2ccccc21 [Carbamazepine]
- gene expression of at least one of CYP3A4, CYP1A2, CYP2B6, CYP2C9 [2]: induce gene expression

Molecule: O=C1NC(=O)C(c2ccccc2)(c2ccccc2)N1 [Phenytoin]
- gene expression of at least one of CYP3A4, CYP1A2, CYP2B6, CYP2C9 [2]: induce gene expression

Molecule: Interleukin-6 [IL-6]
- CYP activity detected using Raman signals (1636 cm^-1) after suppression (CYP enzyme group; HepaRG pre-induced with 2% DMSO, 2 ng/ml, 48 hr, vs control (FIGS. 18, 19)): downregulation
- activity of CYP3A4 (luminescence test) after suppression (CYP3A4): decreases
